Measured values as given in patent US20030207812A1, “Cd45 inhibitors” (priority 2002, published 2003).

How the values were obtained:
[1] = target: T1, CD45 (Homo sapiens, UniProt P08575); assay: Phosphatase assay using pNPP as substrate; format: biochemical; settings: CD45 phosphatase, pNPP substrate, pH 7.0; read-out: pNPP IC50
T1 construct: incubating the cytosolic portion of CD45 with the compounds and p-nitrophenyl phosphate (pNPP); purchased BIOMOL (Plymouth Meeting, Pa.)
T1 sequence (P08575 599-1306 limits assumed): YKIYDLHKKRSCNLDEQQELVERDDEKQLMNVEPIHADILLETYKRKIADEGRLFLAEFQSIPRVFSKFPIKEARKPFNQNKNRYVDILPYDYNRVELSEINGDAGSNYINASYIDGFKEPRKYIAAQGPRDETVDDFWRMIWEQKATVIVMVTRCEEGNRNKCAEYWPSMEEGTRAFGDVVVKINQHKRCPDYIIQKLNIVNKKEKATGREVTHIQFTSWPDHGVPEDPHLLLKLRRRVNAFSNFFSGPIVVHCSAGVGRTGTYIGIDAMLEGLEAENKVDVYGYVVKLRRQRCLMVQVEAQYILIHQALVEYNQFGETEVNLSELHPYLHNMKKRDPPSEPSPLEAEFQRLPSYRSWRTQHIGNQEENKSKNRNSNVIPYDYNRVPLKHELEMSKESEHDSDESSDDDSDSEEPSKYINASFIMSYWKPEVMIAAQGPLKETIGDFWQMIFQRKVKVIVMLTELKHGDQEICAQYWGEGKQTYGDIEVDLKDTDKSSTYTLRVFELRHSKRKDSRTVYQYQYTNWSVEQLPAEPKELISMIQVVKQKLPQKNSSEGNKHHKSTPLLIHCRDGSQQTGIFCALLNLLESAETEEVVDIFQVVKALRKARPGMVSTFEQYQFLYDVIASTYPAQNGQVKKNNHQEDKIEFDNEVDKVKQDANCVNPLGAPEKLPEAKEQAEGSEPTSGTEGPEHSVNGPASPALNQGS
Procedure: Phosphatase assay using pNPP as substrate:
CD45 enzyme was obtained from BIOMOL (Plymouth Meeting, Pa.). Phosphatase activity was assayed in a buffer containing final concentrations of 25 mM imidazole at pH 7.0, 50 mM NaCl, 2.5 mM ethylenediaminetetraacetic acid (“EDTA”), 5 mM dithiothreitol (“DTT”) and 10 μg/mL bovine serum albumin (“BSA”) using pNPP as a substrate.

[2] = Cytotoxicity assay (Calcein-AM uptake); settings: human, PHA-expanded T-cell lymphoblasts from PBMC
[3] = target: T1, CD45; assay: Phosphatase assay using lck 10-mer as substrate; format: biochemical; settings: CD45 phosphatase, lck carboxy-terminal peptide TEGQpYQPQP substrate, pH 7.2; read-out: Ick IC50
Procedure: Phosphatase assay using lck 10-mer as substrate:
Phosphatase activity was assayed in 96 well plates in a buffer containing final concentrations of 25 mM HEPES at pH 7.2, 5 mM DTT and 10 μg/mL BSA using the lck carboxy-terminal peptide TEGQpYQPQP as the substrate (Cho, H., Krishnaraj, R., Itoh, M., Kitas, E., Bannwarth, W., Saito, H., Walsh, C. T. 1993. Substrate specificities of catalytic fragments of protein tyrosine phosphatases (HPTPb, LAR, and CD45) toward the phosphotyrosylpeptide substrates and thiophosphotyrosylated peptides as inhibitors. Protein Science 2:977-984). Compounds were tested in a range from 30 to 0.01 μM in a final concentration of 5% DMSO. Enzyme was incubated with substrate with or without compound, at room temperature for 1.5 h. At the end of the incubation period, BIOMOL “Green Reagent” (BIOMOL, Plymouth Meeting, Pa.) was added to each well, the plates incubated at room temperature for 30 min and absorbance read at 620 nm.

[4] = system: T cells (PBMC); assay: cells; format: cell-based, human; settings: human PBMC, OKT3 30 ng/mL, [3H]thymidine; read-out: T cell prolif. IC50
Procedure: Cell isolation and T cell proliferation assay:
Whole blood was obtained from healthy human blood donors. Peripheral blood mononuclear cells (“PBMC”) were isolated using Lymphoprep density-gradient centrifugation (Nycomed Amersham, Oslo, Norway), washed, counted and resuspended at 2×10^6 cells/mL in RPMI 1640 medium containing glutamine, 0.1 mg/mL gentamycin and 10% heat inactivated human serum. PBMC were transferred to 96-well plates (2×10^5 cells/well) containing compound or vehicle control, with the final concentration of DMSO not to exceed 0.3%, and incubated for 1 hour before addition of the activating anti-CD3 antibody, OKT3 (30ng/mL). After 24 hours in culture, the cells were pulsed with [^3H]thymidine (1 μCi/well) overnight and harvested the next day onto 96-well Packard GF/C filter plates using a Packard Cell Harvester (Packard Instruments, Meriden, Conn.). The filter plate was dried, the bottom of the plate sealed, 25 μL of Microscint 20 scintillation fluid added to each well, the top of the plate sealed with TopSeal-A, and the plate counted on a Packard TopCount. The data from the TopCount is transferred into Excel 5 (Microsoft, Redmond, Wash.) and formatted for EC50 determination using Prism software (GraphPad Software, San Diego, Calif.).

With `O=C1C(=O)c2cc(NC(=O)c3c(Cl)cc(Cl)cc3Cl)ccc2-c2ccccc21` [Example 6, 2,4,6-Trichloro-N-(9,10-dioxo-9,10-dihydro-phenanthren-2-yl)-benzamide] the IC50 [1] was 0.5 µM, the CC50 [2] was 12 µM and the IC50 [3] was 16 µM. For the same molecule, the IC50 [4] was 1.5 µM.
With `O=C1C(=O)c2cc(NC(=O)C(Cl)(Cl)Cl)ccc2-c2ccccc21` [Example 7, 2,2,2-Trichloro-N-(9,10-dioxo-9,10-dihydro-phenanthren-2-yl)-acetamide] the IC50 [1] was 0.5 µM, the CC50 [2] was 9 µM and the IC50 [3] was 13 µM. It also gave an IC50 [4] of 0.5 µM.
`O=C1C(=O)c2cc(NC(=O)c3ccccc3C(F)(F)F)ccc2-c2ccccc21` [Example 8, N-(9,10-Dioxo-9,10-dihydro-phenanthren-2-yl)-2-trifluoromethyl-benzamide] showed an IC50 [1] of 0.4 µM, a CC50 [2] of 12 µM and an IC50 [3] of 15 µM. For the same molecule, the IC50 [4] was 1.4 µM.
Work on `CC(C)(C)C(=O)Nc1ccc2c(c1)-c1ccccc1C(=O)C2=O` [Example 10, N-(9,10-Dioxo-9,10-dihydro-phenenathren-3-yl)-2,2-dimethyl-propionamide] yielded an IC50 [1] of 1.2 µM, a CC50 [2] of 10 µM and an IC50 [3] of 4.9 µM. For the same molecule, the IC50 [4] was 0.7 µM.
For `O=C(Nc1ccc2c(c1)-c1ccccc1C(=O)C2=O)c1ccccc1F` [Example 12, N-(9,10-Dioxo-9,10-dihydro-phenanthren-3-yl)-2-fluoro-benzamide], the IC50 [1] was 1.3 µM, the CC50 [2] was 15 µM and the IC50 [3] was 6 µM. It also gave an IC50 [4] of 3 µM.
For `Cc1ccc(S(=O)(=O)Nc2ccc3c(c2)C(=O)C(=O)c2ccccc2-3)cc1` [Example 15, N-(9,10-Dioxo-9,10-dihydro-phenanthren-2-yl)-4-methyl-benzenesulfonamide], the IC50 [1] was 1 µM, the CC50 [2] was > 30 µM and the IC50 [3] was 15 µM. For the same molecule, the IC50 [4] was 6.4 µM.
In the case of `O=C1C(=O)c2cc(-c3ccsc3)ccc2-c2ccccc21` [Example 17, 2-Thiophen-3-yl-phenanthrene-9,10-dione], the IC50 [1] is reported as 0.8 µM, the CC50 [2] is reported as 7.3 µM and the IC50 [3] is reported as > 30 µM. For the same molecule, the IC50 [4] was 1.8 µM.
In the case of `O=C1C(=O)c2cc(-c3ccc4c(c3)OCO4)ccc2-c2ccccc21` [Example 21, 2-Benzo[1,3]dioxol-5-yl-phenanthrene-9,10-dione], the IC50 [1] is reported as 0.99 µM, the CC50 [2] is reported as 4.9 µM and the IC50 [3] is reported as > 30 µM. The IC50 [4] was 1.8 µM.
For `CCOc1ccccc1-c1ccc2c(c1)C(=O)C(=O)c1ccccc1-2` [Example 22, 2-(2-Ethoxy-phenyl)-phenanthrene-9,10-dione], the IC50 [1] was 3.6 µM, the CC50 [2] was > 30 µM and the IC50 [3] was 9.7 µM. The IC50 [4] was 0.7 µM.
With `CC(C)CNC(=O)[C@H](CCC(N)=O)NC(=O)CNC(=O)c1ccc2c(c1)-c1ccccc1C(=O)C2=O` [Example 23] the IC50 [1] was 1.1 µM, the CC50 [2] was > 30 µM and the IC50 [3] was 3 µM. The IC50 [4] was 20 µM.
`COC(=O)CCC(=O)Nc1cccc2c1-c1ccccc1C(=O)C2=O` [Example 63, N-(9,10-Dioxo-9,10-dihydro-phenanthren-4-yl)-succinamic Acid Methyl Ester] showed an IC50 [1] of 0.7 µM, a CC50 [2] of 8 µM and an IC50 [3] of 2.6 µM. For the same molecule, the IC50 [4] was 1.2 µM.
For `COC(=O)CCCCCCC(=O)Nc1ccc2c(c1)C(=O)C(=O)c1cccc([N+](=O)[O-])c1-2` [Example 64, 7-(5-Nitro-9,10-dioxo-9,10-dihydro-phenanthren-2-ylcarbamoyl)-heptanoic Acid Methyl Ester], the IC50 [1] was 1.1 µM, the CC50 [2] was 14 µM and the IC50 [3] was > 30 µM. The IC50 [4] was 4 µM.
`COC(=O)CCCC(=O)Nc1ccc2c(c1)C(=O)C(=O)c1cccc([N+](=O)[O-])c1-2` [Example 65, 4-(5-Nitro-9,10-dioxo-9,10-dihydro-phenanthren-2-ylcarbamoyl)-butyric Acid Methyl Ester] gave an IC50 [1] of 1.1 µM, a CC50 [2] of 15 µM and an IC50 [3] of 3.1 µM. It also gave an IC50 [4] of 0.6 µM.
Molecule `COC(=O)CCC(=O)Nc1ccc2c(c1)C(=O)C(=O)c1cccc([N+](=O)[O-])c1-2` [Example 66, N-(5-Nitro-9,10-dioxo-9,10-dihydro-phenanthren-2-yl)-succinamic Acid Methyl Ester] has an IC50 [1] of 0.9 µM, a CC50 [2] of 13 µM and an IC50 [3] of 1.8 µM. The IC50 [4] was 3.5 µM.
For `COC(=O)CCCC(=O)Nc1cccc2c1-c1ccccc1C(=O)C2=O` [Example 67, 4-(9,10-Dioxo-9,10-dihydro-phenanthren-4-ylcarbamoyl)-butyric Acid Methyl Ester], the IC50 [1] was 1 µM, the CC50 [2] was 4 µM and the IC50 [3] was 2.2 µM. The IC50 [4] was 0.8 µM.
Work on `COC(=O)CCCCCCC(=O)Nc1cccc2c1-c1ccccc1C(=O)C2=O` [Example 68, 7-(9,10-Dioxo-9,10-dihydro-phenanthren-4-ylcarbamoyl)-heptanoic Acid Methyl Ester] yielded an IC50 [1] of 1 µM, a CC50 [2] of 7.5 µM and an IC50 [3] of 3.2 µM. For the same molecule, the IC50 [4] was 1.8 µM.
With `COC(=O)CCCCCCCCC(=O)Nc1cccc2c1-c1ccccc1C(=O)C2=O` [Example 69, 9-(9,10-Dioxo-9,10-dihydro-phenanthren-4-ylcarbamoyl)-nonanoic Acid Methyl Ester] the IC50 [1] was 0.6 µM, the CC50 [2] was 14 µM and the IC50 [3] was 4.8 µM. For the same molecule, the IC50 [4] was 4.6 µM.
Work on `COC(=O)CCCC(=O)Nc1ccc2c(c1)C(=O)C(=O)c1ccccc1-2` [Example 70, 4-(9,10-Dioxo-9,10-dihydro-phenanthren-2-ylcarbamoyl)-butyric Acid Methyl Ester] yielded an IC50 [1] of 0.4 µM, a CC50 [2] of 3 µM and an IC50 [3] of 4.7 µM. The IC50 [4] was 0.5 µM.
`COC(=O)CCC(=O)Nc1ccc2c(c1)C(=O)C(=O)c1cccc(NC(=O)CCC(=O)OC)c1-2` [Example 73, N-[5-(3-Methoxycarbonyl-propionylamino)-9,10-dioxo-9,10-dihydro-phenanthren-2-yl]-succinamic Acid Methyl Ester] gave an IC50 [1] of 0.5 µM, a CC50 [2] of 11 µM and an IC50 [3] of 3 µM. The IC50 [4] was 5 µM.
Work on `COC(=O)CCCC(=O)Nc1ccc2c(c1)C(=O)C(=O)c1cccc(NC(=O)CCCC(=O)OC)c1-2` [Example 74, 4-[5-(4-Methoxycarbonyl-butyrylamino)-9,10-dioxo-9,10-dihydro-phenanthren-2-ylcarbamoyl]-butyric Acid Methyl Ester] yielded an IC50 [1] of 0.8 µM, a CC50 [2] of 19 µM and an IC50 [3] of 3.3 µM. For the same molecule, the IC50 [4] was 2.6 µM.
For `COC(=O)CCCCCCC(=O)Nc1ccc2c(c1)C(=O)C(=O)c1cccc(NC(=O)CCCCCCC(=O)OC)c1-2` [Example 75, 7-[5-(7-Methoxycarbonyl-heptanoylamino)-9,10-dioxo-9,10-dihydro-phenanthren-2-ylcarbamoyl]-heptanoic Acid Methyl Ester], the IC50 [1] was 0.8 µM, the CC50 [2] was 13 µM and the IC50 [3] was 10 µM. It also gave an IC50 [4] of 2.6 µM.
In the case of `COC(=O)CCCCCCCCC(=O)Nc1ccc2c(c1)C(=O)C(=O)c1cccc(NC(=O)CCCCCCCCC(=O)OC)c1-2` [Example 76, 9-[5-(9-Methoxycarbonyl-nonanoylamino)-9,10-dioxo-9,10-dihydro-phenanthren-2-ylcarbamoyl]-nonanoic Acid Methyl Ester], the IC50 [1] is reported as 9.3 µM, the CC50 [2] is reported as > 30 µM and the IC50 [3] is reported as > 30 µM. It also gave an IC50 [4] of 7 µM.
